These results are taken from ChEMBL document CHEMBL1153759, “Surface plasmon resonance-based detection of ladder-shaped polyethers by inhibition detection method” (Bioorg Med Chem Lett, 2009).

SMILES strings stand for the structures. The source made the active and inactive calls. No cut-off for these calls is given here.

Experiment [1] has as its target 3',5'-cyclic-AMP phosphodiesterase 4D (Homo sapiens, UniProt Q08499). Kind of experiment: Binding affinity to recombinant PDE4D by surface plasmon resonance assay.
Experiment [2] can be described thus: (§1) Inhibition of bovine spleen PDE2 by surface plasmon resonance assay. Details: species or system Bos taurus. On the technique in general: SPR reads the build-up and loss of mass on a sensor chip optically.
The species entered for experiment [3] is Bos taurus. Kind of experiment: Inhibition of bovine spleen PDE2 up to 100 uM after 20 to 40 seconds by surface plasmon resonance assay.
Experiment [4] can be described thus: Binding affinity to bovine spleen PDE2 by surface plasmon resonance assay. Details: species or system Bos taurus.
For experiment [5], the species on record is Bos taurus. Described as §1.

3',5'-cyclic-AMP phosphodiesterase 4D, sequence (Q08499 whole entry): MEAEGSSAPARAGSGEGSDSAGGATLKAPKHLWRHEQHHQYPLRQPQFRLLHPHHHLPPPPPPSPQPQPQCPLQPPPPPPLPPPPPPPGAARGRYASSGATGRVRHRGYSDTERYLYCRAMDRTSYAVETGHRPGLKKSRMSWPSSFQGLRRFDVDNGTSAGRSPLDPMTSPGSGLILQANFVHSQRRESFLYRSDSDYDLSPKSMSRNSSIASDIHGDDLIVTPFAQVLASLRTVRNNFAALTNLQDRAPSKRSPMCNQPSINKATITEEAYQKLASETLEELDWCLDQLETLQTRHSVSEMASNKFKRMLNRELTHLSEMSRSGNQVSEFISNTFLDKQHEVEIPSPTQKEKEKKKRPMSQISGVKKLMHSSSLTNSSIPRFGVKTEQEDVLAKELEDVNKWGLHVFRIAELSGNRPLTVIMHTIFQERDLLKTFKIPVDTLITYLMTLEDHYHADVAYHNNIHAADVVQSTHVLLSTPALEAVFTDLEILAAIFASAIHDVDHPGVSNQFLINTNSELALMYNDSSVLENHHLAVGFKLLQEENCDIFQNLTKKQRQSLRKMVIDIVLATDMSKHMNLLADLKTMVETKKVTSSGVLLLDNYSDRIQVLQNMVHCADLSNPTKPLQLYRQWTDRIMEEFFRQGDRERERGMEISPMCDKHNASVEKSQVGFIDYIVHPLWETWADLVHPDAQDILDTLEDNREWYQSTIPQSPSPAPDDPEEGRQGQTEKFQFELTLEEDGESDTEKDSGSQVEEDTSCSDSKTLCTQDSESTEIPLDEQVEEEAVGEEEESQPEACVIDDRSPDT

By Kd is commonly meant the equilibrium constant for the complex coming apart. For orientation: IC50 means the concentration that gives 50% inhibition. High values mean weaker potency, low ones greater potency. For `C[C@@]12CC[C@@H]3O[C@H](CO)[C@@H](O)C[C@H]3O[C@H]1C[C@H]1O[C@@H](CCOCc3ccccc3)[C@H](OCc3ccccc3)C[C@@H]1O2`, the Kd in experiment [1] is 11 µM. The compound also registered a concentration for half-maximal inhibition (IC50) in experiment [2] of 13 µM.

As for `CC[C@@H](C(=O)[C@@H](C)[C@@H](O)[C@H](C)[C@@H]1O[C@@H]([C@@H](CC)C(=O)O)CC[C@@H]1C)[C@H]1O[C@]2(C=C[C@@H](O)[C@]3(CC[C@@](C)([C@H]4CC[C@](O)(CC)[C@H](C)O4)O3)O2)[C@H](C)C[C@@H]1C` [SALINOMYCIN SODIUM], in experiment [2], the IC50 was > 100 µM.

Regarding `C[C@@]12CC[C@@H]3O[C@@H]4C[C@@H]5O[C@@H]6C[C@H](O)[C@@H](CO)O[C@H]6CC[C@@]5(C)O[C@H]4C[C@H]3O[C@H]1C[C@H]1O[C@@H](CCOCc3ccccc3)[C@H](OCc3ccccc3)C[C@@H]1O2`, the Kd in experiment [1] came to 4.8 µM. Half-maximal inhibition in experiment [2] (IC50) was put at 9.2 µM.

Take `C=C(C=O)C[C@@H]1C[C@H](O)[C@]2(C)O[C@@H]3C[C@@H]4O[C@@H]5C[C@]6(C)O[C@]7(C)CC[C@@H]8O[C@@H]9C[C@]%10(C)O[C@@H]%11C(C)=CC(=O)O[C@H]%11C[C@H]%10O[C@H]9C[C@@H](C)[C@H]8O[C@H]7C[C@H]6O[C@H]5C/C=C\[C@H]4O[C@H]3C[C@H]2O1` [BREVETOXIN]: in experiment [1], the equilibrium dissociation constant (Kd) was 3.8 µM. The inhibition result in experiment [3] is “Active”. In experiment [2], this compound showed an IC50 of 1.8 µM.

Consider `C=CCC(=C)/C=C/[C@@](C)(O)[C@H]1O[C@@H]2C[C@@H]3O[C@@H]4C[C@@H]5O[C@@H]6C[C@@H]7O[C@@H]8C[C@@H]9O[C@@H]%10C[C@@H]%11O[C@](C)(CCOS(=O)(=O)O)[C@@H](OS(=O)(=O)O)C[C@H]%11O[C@H]%10C[C@H]9O[C@H]8CC[C@@]7(C)O[C@@]6(C)CC[C@H](C)[C@H]5O[C@H]4C[C@@]3(C)O[C@H]2CC1=C` [YESSOTOXIN], for which the Kd in experiment [1] was found to be 1 µM; in experiment [4], 2.2 µM. In addition, the inhibition entry in experiment [3] was “Active”. Further, in experiment [2], 3 µM corresponded to half-maximal inhibition (IC50).

Regarding `C[C@@]12CC[C@@H]3O[C@H](CO)[C@@H](O)C[C@H]3O[C@H]1C[C@H]1O[C@@H](CCO)[C@H](O)C[C@@H]1O2`, the Kd in experiment [1] was 29 µM. In addition, in experiment [2], the IC50 was > 100 µM.

In the case of `C=CCC(=C)/C=C/[C@@](C)(O)[C@H]1O[C@@H]2C[C@@H]3O[C@@H]4C[C@@H]5O[C@@H]6C[C@@H]7O[C@@H]8C[C@@H]9O[C@@H]%10C[C@@H]%11O[C@](C)(CCO)[C@@H](O)C[C@H]%11O[C@H]%10C[C@H]9O[C@H]8CC[C@@]7(C)O[C@@]6(C)CC[C@H](C)[C@H]5O[C@H]4C[C@@]3(C)O[C@H]2CC1=C` [DESULFATED YESSOTOXIN], the Kd in experiment [1] was 2 µM. For the same compound, the inhibition entry in experiment [3] is “Active”. In experiment [5], the inhibition entry is “Dose-dependent effect”. The midpoint of inhibition in experiment [2], the IC50, lay at 1.7 µM.

`OC[C@H]1O[C@@H](CCOCc2ccccc2)[C@H](OCc2ccccc2)C[C@@H]1O`: in experiment [1], the Kd was determined as 80 µM. Also, the IC50 in experiment [2] was > 100 µM.
